From US9284310B2, “Inhibitors of cytomegalovirus” (Boehringer Ingelheim International GmbH, priority 2012, dated 2016)

Assays:
[1] = tested on: HCMV AD169-Bac-Luc2 US2-US6 clone #26 virus; assay: HCMV AD169-Bac Luciferase Assay (Example B); type: cell-based, Human Cytomegalovirus; conditions: Human betaherpesvirus 5, AD169, MRC5, 72 h, read-out: EC50 Example B
Text: This assay format is a luciferase reporter-based assay that determines the ability of compounds to inhibit the infection by detecting a luciferase signal decrease following the addition of BIGlo substrate (preparation indicated below) directly in the culture media. Mono-oxygenation of luciferin is catalyzed by luciferase in the presence of Mg2+, ATP and molecular oxygen. The generation of oxyluciferin is a luminescent reaction that can be detected with the proper platereader. Human Cytomegalovirus AD169-Bac is obtained from Dr. Thomas Shenk at Princeton University (reference paper Yu et al. 2002—J. Virol. 76 (5):2316-2328, herein incorpoarated by reference) and modified by recombineering to introduce a humanized firefly luciferase gene (Luc2) at the US2-US6 position in the HCMV genome. The virus is expanded in MRC-5 cells.
(§1) Serial dilutions of the DMSO stock compound solution are performed using DMSO in columns 2-11 and 14-23. DMSO alone is present in columns 1, 12, 13 and 24. Four μL of the DMSO serial dilutions is obtained and diluted using […] of D-MEM 5% FBS culture medium to obtain 4% DMSO (7×).
To perform the assay, 7 μL of the freshly prepared 4% DMSO serial dilution plate is added to the assay plate containing […] of MRC-5 cells plated the day before (10000 cells per well). Seventeen μL of diluted virus is added to columns 2-12 and 14-24 and only D-MEM 5% FBS medium to uninfected control (columns 1 and 13) for a final DMSO concentration of 0.6%. The virus dilution is based on the amount of virus required to obtain the highest luciferase signal possible without CPE (generally between 0.05 and 1 μL of virus stock per well or MOI=0.02). The assay plates are incubated at 37° C. with 5% CO2 for 3 days. Fifteen μL of room temperature BIGlo buffer is added to room temperature assay plates also incubated at room temperature for 15 minutes. The plates are sealed with TopSeal for biosafety and the luminescence signal is read on the TopCount plate reader (Perkin-Elmer) or equivalent.

[2] = tested on: HCMV AD169 virus; assay: HCMV AD169 CPE Assay (Example A); type: cell-based; conditions: Human betaherpesvirus 5, AD169, MRC5, 216 h, MRC-5 cells, 9 days, MTS readout
Description: This assay format is a CPE (Cytopathic effect)-based assay that determines the ability of compounds to protect cells against infection with a dye reduction assay (MTS of CellTiter 96® AQueous Non-Radioactive Cell Proliferation Assay from Promega). The conversion of MTS into aqueous, soluble formazan is performed by dehydrogenase enzymes found in metabolically active cells. The quantity of formazan product determined by absorbance at 490 nm is directly proportional to the number of living cells in culture.
as §1
To perform the assay, 10 µL of the freshly prepared 4% DMSO serial dilution plate is added to the assay plate containing 40 μL of MRC-5 cells plated the day before (10000 cells per well). Twenty μL of diluted virus is added to columns 2-12 and 14-24 and only D-MEM 5% FBS medium to uninfected control (columns 1 and 13) for a final DMSO concentration of 0.6%.
The virus dilution is based on the amount of virus required to obtain a Signal-to-Background of 3-4 (generally between 0.1 and 1 μL of virus stock per well or MOI=0.05). The assay plates are incubated at 37° C. with 5% CO2 for 9 days in order to obtain 100% CPE in infected control without compound (columns 12 and 24). Ten μL of freshly mixed room temperature MTS/PMS (1:20 v/v) is added and the plates are incubated at 37° C. with 5% CO2 for 4-5 h (until signal saturation at 2.3 in the 100% CPE control). The plates are sealed with TopSeal for biosafety and read on the Envision plate reader (Perkin-Elmer) or equivalent at OD 492 nm.

[3] = tested on: HCMV AD169 virus; assay: HCMV AD169 qPCR 96-Well Assay (Example C); type: cell-based; conditions: Human betaherpesvirus 5, AD169, MRC5, 72 h; qPCR of viral DNA, MRC-5 cells, 3 days
Description: The hCMV quantitative PCR (qPCR) assay evaluates the ability of a compound to inhibit, directly or indirectly, the replication of hCMV viral DNA during the first 72 h following the infection. Compounds that inhibit either entry or the hCMV polymerase are active in this assay. Compounds are tested in the qPCR assay in 96-well plates, using a 9-point dose-response with 8 compounds for each 96-well plate. The assay was adapted from the method described by Schnepf et al., Rapid determination of antiviral drug susceptibility of human cytomegalovirus by real-time PCR, Antiviral Research 81 (2009) 64-67.
Final Concentrations: • 10 mM Tris-HCl pH8.0 • 50 mM KCl • 2 mM MgCl2 • 0.45% Tween20 • 0.45% Nonidet P40
Serial dilutions of the DMSO stock compound solution are performed using DMSO in columns 2-10. DMSO alone is present in columns 1 and 11. Column 12 remains empty. Diluted compounds are further diluted with DMEM 5% FBS cell culture medium.
To perform the assay, 25 μL of inhibitor dilutions freshly prepared is added to the assay plate containing 50 μL of MRC-5 cells plated the day before (30000 cells per well). In a 9 point dose-response, column 1 contains mock infected cells and serves at negative control, with the appropriate concentration of DMSO, columns 2 to 10 contain compound dilutions and column 11 contains infected cells, with the appropriate concentration of DMSO and serves as the positive control. Column 12 serves for the standard curve in the qPCR process. Twenty-five μL of virus diluted in DMEM 5% FBS medium (to infect at MOI=0.05) is added to columns 2-11 and only D-MEM 5% FBS medium to uninfected control (column 1) for a final DMSO concentration of 0.6%. Incubate plates at 37° C. in 5% CO2 incubator for 3 days. Whole cell lysates are then obtained by adding 100 μL of Cell lysis buffer to each well including freshly added Proteinase K at a ratio of 1:5 (i.e. 200 μL Proteinase K:1000 μL Cell Lysis buffer) and incubating the assay plate at 56° C. for 1 h. Plates are centrifuged at 1300 rpm for 2 minutes to remove any condensation before proceeding with the qPCR.
The cell lysate is carefully pipetted up and down to mix well and diluted 1:40 in H2O to give a final dilution of 1:80 relative to the 100 μL of lysis buffer that Is added to the cells. 5 μL of diluted lysate is used for the qPCR reaction. An incubation of 5 minutes at 95° C. in a PCR machine is required to inactivate the Proteinase K. The cell lysates can be stored at −20° C. or used to perform qPCR immediately.
A 81 bp fragment of US17 gene from AD169 is amplified by PCR using primers qHCMV7 and qHCMV8. The PCR product is cloned into pCR4 TOPO vector (Invitrogen) and a clone harboring the insert is selected. A mitochondrial DNA is also added to normalize the HCMV copy number. Serial dilutions of the US17 plasmid and mitochondrial DNA are performed in heat-inactivated lysis buffer at the same dilution as the cell lysates (1:80). Usually, a standard curve ranging from 10E6 to 10E2 copies (per well) is suitable.
A typical qPCR reaction consists of the following:
A qPCR cycle consists of an initial denaturation of DNA and activation of the Taq enzyme at 95° C. for 10 min followed by 45 cycles of 15 seconds at 95° C. and 1 min at 60° C. Fluorescence is measured at each cycle, following the elongation step at 60° C. The reaction, data acquisition and analysis are performed using AppliedBiosystems 7500 Real time PCR system or other suitable real-time PCR system.

| Compound | EC50 [1] | EC50 [2] | EC50 [3] |
| --- | --- | --- | --- |
| O=C(Nc1ccc(-c2cnc(-c3cccc(C(F)(F)F)c3)[nH]2)cc1)c1cscn1 [Compound 1018] | 100 nM | 380 nM | 270 nM |
| O=C(Nc1ccc(-c2nnc(Nc3ccccc3)[nH]2)cc1)c1cscn1 [Compound 1039] | 103 nM | 550 nM | 390 nM |
